Values after ≈ are worked out from the molar mass of the structure shown.
Assays:
Kunming breed mice = assay: Toxicity test after intraperitoneal administration to mice; format: in vivo; settings: 14 d; for Deaths: high and low doses (BFA effective amount conversion), ip., mice; for Mental condition of the animals after administration / Results of anatomy: abnormality in organs: male, Kunming, mouse, in vivo, ip
Experimental: Objective: Observation of toxic effects of compounds after intraperitoneally administration (ip.) to mice
1) Agents: Compounds disclosed herein were formulated to a suitable concentration.
2) Animals: Kunming breed mice, weight 18-22 g, male. Provided by Jinan Pengyue Laboratory Animal Breeding Co., Ltd. Animal license number: SCXK (Shandong 20140007)
Method: Kunming breed mice, were randomly grouped by weight, 6 mice per group, namely normal control group, BFA high and low dose groups (100 mg/kg and 50 mg/kg, respectively), and high and low dose groups of some compounds disclosed herein (BFA effective amount conversion). […] After 14 d of continuous administration, all the animals were weighed, and the animals were executed to observe whether there were any abnormalities in the organs.

[1] = test system: human leukemia K562 cells; assay: Cell proliferation assay (CCK-8); format: cell-based; settings: K562, 72 h
Procedure, shortened: (§1)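 Log-phase cells are plated at 5000/well and incubated 24 h. Compounds in DMSO (≤2‰ final) are added in duplicate for 72 h. Viability is then read as formazan absorbance at 450 nm after 1.5–3 h with CCK-8, and IC50 is fitted by log(inhibitor) vs response, variable slope.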

[2] = test system: pancreatic cancer PANC-1 cells; assay: Cell proliferation assay (CCK-8); format: cell-based; settings: Homo sapiens, PANC-1, 72 h
Procedure, shortened: as §1

[3] = test system: human breast cancer MCF7 cells; assay: Cell proliferation assay (CCK-8); format: cell-based; settings: MCF7, 72 h
Procedure, shortened: as §1

[4] = test system: esophageal cancer Eca-109 cells; assay: Cell proliferation assay (CCK-8); format: cell-based; settings: Homo sapiens, Eca-109, 72 h
Procedure, shortened: as §1

[5] = test system: human liver cancer HepG2 cells; assay: Cell proliferation assay (CCK-8); format: cell-based; settings: HepG2, 72 h
Procedure, shortened: as §1

[6] = test system: human lung cancer A549 cells; assay: Cell proliferation assay (CCK-8); format: cell-based; settings: A549, 72 h
Procedure, shortened: as §1

[7] = test system: Human cervical cancer Hela cells; assay: Cell proliferation assay (CCK-8); format: cell-based; settings: 72 h
Procedure, shortened: as §1

[8] = test system: human gastric cancer MKN-45 cells; assay: Cell proliferation assay (CCK-8); format: cell-based; settings: MKN-45, 72 h
Procedure, shortened: as §1

physchem = settings: 37° C., x ± s, n = 3
Method: (§2) Methods: Excess BFA and the compounds disclosed herein were added to 10 mL of three solvents, methanol, acetone and 5% DMSO+95% H2O, respectively, and shaken on a shaker at 37° C. at 100 r/min for 24 h. After 24 h, the samples were centrifuged at 15 000 r/min for 15 min to remove the undissolved compounds. The supernatant was filtered using a 0.45 μm membrane filter. The supernatant was appropriately diluted with methanol and contents of the compounds were determined by HPLC method to calculate the solubility.

[9] = Solubility test (shaking 24 h at 37° C., HPLC)
Method: as §2

Row | Compound | Deaths (Kunming breed mice) | Mental condition of the animals after administration (Kunming breed mice) | Results of anatomy: abnormality in organs (Kunming breed mice) | IC50 [1] | IC50 [2] | IC50 [3] | IC50 [4] | IC50 [5] | IC50 [6] | IC50 [7] | IC50 [8] | solubility at 24 h (physchem; Acetone) | solubility at 24 h (physchem; 5% DMSO + 95% H2O) | solubility at 24 h (physchem; Methanol) | solubility at 24 h ([9]; 5% DMSO + 95% H2O) | solubility at 24 h ([9]; acetone) | solubility at 24 h ([9]; methanol)
1 | C[C@H]1CCC/C=C/[C@@H]2C[C@H](OC(=O)/C=C/c3cccnc3)C[C@H]2[C@H](O)/C=C/C(=O)O1 [Compound 16a, 7-O-(3-(pyridine-3-yl)acrylic acid)acyl BFA] | no deaths | good mental condition | no significant abnormality in all organs | 0.1 to 1 µM | < 0.1 µM | 0.1 to 1 µM | 0.1 to 1 µM | < 0.1 µM | 0.1 to 1 µM | 0.1 to 1 µM | 0.1 to 1 µM | 31.6 ± 0.72 mg/mL (≈ 76.8 mM) | – | – | – | – | –
2 | C[C@H]1CCC/C=C/[C@@H]2C[C@H](OC(=O)/C=C/c3cnc4ccccc4c3)C[C@H]2[C@H](OC(=O)/C=C/c2cnc3ccccc3c2)/C=C/C(=O)O1 [Compound 17c] | – | – | – | 0.1 to 1 µM | 0.1 to 1 µM | 0.1 to 1 µM | 1 to 10 µM | 0.1 to 1 µM | 1 to 10 µM | 1 to 10 µM | 1 to 10 µM | – | 0.45 ± 0.28 mg/mL | 20.4 ± 0.52 mg/mL (≈ 31.8 mM) | – | – | –
3 | C[C@H]1CCC/C=C/[C@@H]2C[C@H](OC(=O)/C=C/c3ccc(N(C)C)cc3)C[C@H]2[C@H](O)/C=C/C(=O)O1 [Compound 10a, 7-O-(4-dimethylaminocinnamic acid)acyl BFA] | no deaths | good mental condition | no significant abnormality in all organs | 0.1 to 1 µM | 1 to 10 µM | 0.1 to 1 µM | 1 to 10 µM | 1 to 10 µM | 0.1 to 1 µM | 1 to 10 µM | 0.1 to 1 µM | – | – | – | 0.75 ± 1.6 mg/mL | 25.6 ± 1.74 mg/mL (≈ 56.5 mM) | 25.3 ± 4.35 mg/mL (≈ 55.7 mM)
